The source of these data is ChEMBL document CHEMBL1150683, “Two new carbazole alkaloids from Murraya koenigii” (J Nat Prod, 2003).

Each structure is given as a SMILES string.

In the assay the target is Cathepsin B (Homo sapiens, UniProt P07858). Put plainly: Inhibition of cathepsin B mediated osteoporotic activity.

What is called IC50 is the midpoint of a concentration-inhibition curve. Higher therefore signals weaker potency.

`COc1cc2c([nH]c3c4c(c(C)cc32)OC(C)(C)C=C4)c(-c2c(O)c(OC)cc3c2[nH]c2c4c(c(C)cc23)OC(C)(C)C=C4)c1O` showed a 50% inhibitory concentration (IC50) of 2110 nM.
